Experimental data as given in PubChem BioAssay (NCI).
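These data come from cells grown in 96-well plates and exposed to compound for 48 hours at five concentrations. At the GI50, growth is halved. TGI: total growth inhibition.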

What was measured:
Assay in all cases: DTP human tumour cell line panel, 48 h
MDA-MB-435 = system: MDA-MB-435
SK-OV-3 ovarian = system: SK-OV-3 ovarian
IGROV1 ovarian = system: IGROV1 ovarian
HCT-15 colon = system: HCT-15 colon
SF-539 CNS = system: SF-539 CNS
SF-268 CNS = system: SF-268 CNS
HOP-62 NSCLC = system: HOP-62 NSCLC
K-562 leukemia = system: K-562 leukemia
OVCAR-3 ovarian = system: OVCAR-3 ovarian
NCI-H226 lung = system: NCI-H226 lung

Row | SMILES | GI50 (MDA-MB-435) [µM] | TGI (MDA-MB-435) [µM] | GI50 (SK-OV-3 ovarian) [µM] | TGI (SK-OV-3 ovarian) [µM] | GI50 (IGROV1 ovarian) [µM] | TGI (IGROV1 ovarian) [µM] | GI50 (HCT-15 colon) [µM] | TGI (HCT-15 colon) [µM] | GI50 (SF-539 CNS) [µM] | TGI (SF-539 CNS) [µM] | GI50 (SF-268 CNS) [µM] | TGI (SF-268 CNS) [µM] | GI50 (HOP-62 NSCLC) [µM] | TGI (HOP-62 NSCLC) [µM] | GI50 (K-562 leukemia) [µM] | TGI (K-562 leukemia) [µM] | GI50 (OVCAR-3 ovarian) [µM] | TGI (OVCAR-3 ovarian) [µM] | GI50 (NCI-H226 lung) [µM] | TGI (NCI-H226 lung) [µM]
1 | N#Cc1ncc(-c2ccc(C(F)(F)F)cc2)c(NC2CCCCCC2)n1 | 29.1 | > 100 | > 100 | > 100 | 38.8 | > 100 | 8.53 | > 100 | > 100 | > 100 | 27.7 | > 100 | > 100 | > 100 | 9.03 | > 100 | 14.9 | > 100 | 21.8 | > 100
2 | Cc1[nH]c(N)nc(=S)c1CCCNc1ccccc1 | – | > 100 | – | > 100 | – | > 100 | – | > 100 | – | > 100 | – | > 100 | – | > 100 | – | > 100 | – | > 100 | – | > 100
